Data set [1] in a line: Negative-staining TEM of peptide self-assembly. Format: physicochemical. As to conditions: for fibrils (TEM), time course of trypsin treatment: room temperature, 10 mM sodium phosphate pH 7.4. The procedure: (§1) Fig. 3 TEM analysis of HD6 self-assembly and SEM analysis of bacterial agglutination. Top row: transmission electron micrographs of 10 mM sodium phosphate pH 7.4 (control), 0.4 μM trypsin (control), 20 μM proHD6 in the absence and presence of 0.4 μM trypsin, and 20 μM HD6. All the samples were incubated at room temperature for 1 h. Scale bar = 100 nm. TEM images obtained using 10 mM Tris-maleate pH 6.4 are presented in Fig. S7. ^† Middle row: scanning electron micrographs of E. coli ATCC 25922 treated with 50 mM Tris-maleate pH 6.4 (control), 0.4 μM APMSF-inactivated trypsin (control), 3 μM proHD6, 3 μM trypsin-cleaved proHD6, or 3 μM HD6. Trypsin-cleaved proHD6 was prepared prior to incubation with the bacteria and the residual enzymatic activity was inhibited by APMSF (Experimental section). Following a 30 min incubation, the bacterial suspensions were centrifuged, fixed, and analyzed by SEM. Scale bar = 20 μm. Bottom row: SEM of L. monocytogenes ATCC19115 treated under the same conditions as in the middle row. Scale bar = 20 μm.
The samples for TEM were prepared by following a literature protocol.[15] For each sample, a 5 μL aliquot of peptide solution (20 μM in 10 mM sodium phosphate pH 7.4 or 10 mM Tris-maleate pH 6.4) was placed onto the carbon-coated surface of a copper grid (400 square mesh, Electron Microscopy Sciences). After 1 min, the grid was washed with a 5 μL aliquot of Milli-Q water, stained with a 5 μL aliquot of 2% uranyl acetate (UA, Electron Microscopy Sciences) in Milli-Q water three times, and air-dried for at least 15 min before imaging. A FEI Technai Spirit Transmission Electron Microscope was employed for all TEM imaging (W.M. Keck Microscopy Facility, Whitehead Institute, Cambridge, MA). TEM images were obtained with at least two independently prepared peptides and representative images are presented.
Figure S7. TEM analysis of trypsin-catalyzed proteolysis of proHD6 in Tris-maleate buffer.
Transmission electron micrographs of 10 mM Tris- maleate pH 6.4 (control), 0.4 µM trypsin (control), 20 µM proHD6 in the absence and presence of 0.4 µM trypsin, and 20 µM HD6. All samples were incubated at room temperature for 1 h. Scale bar = […].
Figure S8. Time course of trypsin-catalyzed proteolysis of proHD6 monitored by TEM.
Transmission electron micrographs of 20 µM proHD6 after treatment with 0.4 µM trypsin at room temperature for the indicated time. All the samples were in 10 mM sodium phosphate […]

Data set [2] relates to L. monocytogenes ATCC19115. The experiment in a line: SEM analysis of bacterial agglutination. As to conditions: 3 µM proHD6 treated with trypsin before incubation (trypsin inactivated with APMSF), 30 min, 50 mM Tris-maleate pH 6.4. It counts as cell-based, Listeria monocytogenes. The procedure: as §1
Bacteria were grown aerobically at 37 °C overnight in LB media. The next morning the strains were subcultured and grown to mid-logarithmic phase in LB media. […]

Turning to “EPLQAEDDPLQAKAYEADAQEQRGANDQDFAVSFAEDASSSLRALGSTRAFTCHCRRSCYSTEYSYGTCTVMGINHRFCCL (disulfide (positions not given here)) [proHD6, 81-residue propeptide of human α-defensin 6, recombinant, from His6-SUMO-proHD6]”, in data set [1] (20 µM peptide, 10 mM sodium phosphate pH 7.4 or 10 mM Tris-maleate pH 6.4, room temperature 1 h, no trypsin), the “formation of higher-order oligomers (TEM)” value was “no evidence for the formation of higher-order oligomers”. For the same sequence, the “fibrils (TEM), time course of trypsin treatment” value is “relatively short fibrils” in data set [1] (20 µM proHD6 + 0.4 µM trypsin, 5 min) and “closely resembled those of mature HD6” in data set [1] (20 µM proHD6 + 0.4 µM trypsin, 60 min). Besides, the “formation of fibrils (TEM) after addition of trypsin” value in data set [1] (20 µM proHD6 + 0.4 µM trypsin, room temperature 1 h, 10 mM sodium phosphate pH 7.4 or 10 mM Tris-maleate pH 6.4) was “fibril-like features comparable to those observed for the mature HD6 peptide”. In addition, the “bacterial agglutination (SEM), trypsin-cleaved” value in data set [2] is on record as “same trypsin-dependent activity”.

(Values after paper PMC4827351 (Chemical Science, 2015).)
